Results reported in PMC5218480 (PLoS ONE, 2017).

Tested on: MV-4-11 cells
Experiment: Gene expression microarray analysis (Affymetrix PrimeView) and GSEA
Assay type: cell-based, human
Parameters: RFU PODN (11730768_x_at) / Fold change /veh PODN (11730768_x_at) / RFU LINC00158 (11744669_a_at) / Fold change /veh LINC00158 (11744669_a_at) / RFU DUSP10 (11751237_a_at) / Fold change /veh DUSP10 (11751237_a_at) / RFU ID3 (11757404_x_at) / Fold change /veh ID3 (11757404_x_at) / RFU PLEKHG5 (11737974_s_at) / Fold change /veh PLEKHG5 (11737974_s_at) / RFU LRRC4B (11730491_at) / Fold change /veh LRRC4B (11730491_at) / RFU GIMAP4 (11747438_a_at) / Fold change /veh GIMAP4 (11747438_a_at) / RFU KRT8 (11758183_x_at) / Fold change /veh KRT8 (11758183_x_at) / RFU CNN1 (11734310_a_at) / Fold change /veh CNN1 (11734310_a_at) / RFU VPS37D (11726825_at) / Fold change /veh VPS37D (11726825_at) / RFU C10orf10 (11716522_x_at) / Fold change /veh C10orf10 (11716522_x_at) / RFU KIR2DL2 /// KIR2DL4 /// KIR2DL5A /// KIR2DL5B /// KIR2DS1 /// KIR2DS2 /// KIR2DS3 /// KIR2DS4 /// KIR3DL3 /// KIR3DL3 /// KIR3DS1 (11738374_at) / Fold change /veh KIR2DL2 /// KIR2DL4 /// KIR2DL5A /// KIR2DL5B /// KIR2DS1 /// KIR2DS2 /// KIR2DS3 /// KIR2DS4 /// KIR3DL3 /// KIR3DL3 /// KIR3DS1 (11738374_at) / RFU C1QL1 (11718748_at) / Fold change /veh C1QL1 (11718748_at) / RFU TMPRSS4 (11747572_a_at) / Fold change /veh TMPRSS4 (11747572_a_at) / RFU HAMP (11756126_x_at) / Fold change /veh HAMP (11756126_x_at) / RFU RNFT2 (11725882_a_at) / Fold change /veh RNFT2 (11725882_a_at) / RFU NR4A2 (11747474_a_at) / Fold change /veh NR4A2 (11747474_a_at) / RFU ABCC12 (11746883_a_at) / Fold change /veh ABCC12 (11746883_a_at) / RFU TMEM136 (11760407_x_at) / Fold change /veh TMEM136 (11760407_x_at) / RFU CLDN22 /// WWC2 (11732394_at) / Fold change /veh CLDN22 /// WWC2 (11732394_at) / RFU HLA-DPB1 (11760878_x_at) / Fold change /veh HLA-DPB1 (11760878_x_at) / RFU SPINT1 (11716480_a_at) / Fold change /veh SPINT1 (11716480_a_at) / RFU GAP43 (11754022_s_at) / Fold change /veh GAP43 (11754022_s_at) / RFU A4GNT (11735810_at) / Fold change /veh A4GNT (11735810_at) / RFU PRB3 (11715151_x_at) / Fold change /veh PRB3 (11715151_x_at) / RFU TUBB4B (11761932_at) / Fold change /veh TUBB4B (11761932_at) / RFU CAPN14 (11732068_a_at) / Fold change /veh CAPN14 (11732068_a_at) / RFU TMCC2 (11721928_a_at) / Fold change /veh TMCC2 (11721928_a_at) / RFU IRGQ (11745062_a_at) / Fold change /veh IRGQ (11745062_a_at) / RFU FAM174B (11720279_a_at) / Fold change /veh FAM174B (11720279_a_at) / RFU TMPRSS4 (11748680_a_at) / Fold change /veh TMPRSS4 (11748680_a_at) / RFU FAM212B (11763350_a_at) / Fold change /veh FAM212B (11763350_a_at) / RFU PLEKHG5 (11743358_a_at) / Fold change /veh PLEKHG5 (11743358_a_at) / RFU ZSCAN30 (11745921_a_at) / Fold change /veh ZSCAN30 (11745921_a_at) / RFU CMKLR1 (11741424_a_at) / Fold change /veh CMKLR1 (11741424_a_at) / RFU LOC101060620 /// MAPK8IP1 (11723275_at) / Fold change /veh LOC101060620 /// MAPK8IP1 (11723275_at) / RFU SPTSSB (11747773_x_at) / Fold change /veh SPTSSB (11747773_x_at) / RFU PRSS12 (11739890_at) / Fold change /veh PRSS12 (11739890_at) / RFU BIN1 (11741810_x_at) / Fold change /veh BIN1 (11741810_x_at) / RFU WNT11 (11732464_a_at) / Fold change /veh WNT11 (11732464_a_at) / RFU C10orf10 (11716521_a_at) / Fold change /veh C10orf10 (11716521_a_at) / RFU C5orf56 (11738089_at) / Fold change /veh C5orf56 (11738089_at) / RFU CYB561 (11721691_x_at) / Fold change /veh CYB561 (11721691_x_at) / RFU ANKRD19P (11752326_a_at) / Fold change /veh ANKRD19P (11752326_a_at) / RFU OR2T12 /// OR2T33 /// OR2T8 (11738714_s_at) / Fold change /veh OR2T12 /// OR2T33 /// OR2T8 (11738714_s_at) / RFU VCAN (11748164_a_at) / Fold change /veh VCAN (11748164_a_at) / RFU JSRP1 (11732532_at) / Fold change /veh JSRP1 (11732532_at) / RFU KRTAP10-11 (11738290_x_at) / Fold change /veh KRTAP10-11 (11738290_x_at) / RFU MYO3A (11730013_a_at) / Fold change /veh MYO3A (11730013_a_at) / RFU EBF3 (11725865_a_at) / Fold change /veh EBF3 (11725865_a_at) / RFU CAMK2N1 (11719241_x_at) / Fold change /veh CAMK2N1 (11719241_x_at) / RFU C5orf56 (11738088_a_at) / Fold change /veh C5orf56 (11738088_a_at) / RFU OLFML3 (11715873_a_at) / Fold change /veh OLFML3 (11715873_a_at) / RFU LOC100653217 /// NTM (11731650_a_at) / Fold change /veh LOC100653217 /// NTM (11731650_a_at) / RFU MAPK11 (11762145_a_at) / Fold change /veh MAPK11 (11762145_a_at) / RFU FIZ1 (11724087_x_at) / Fold change /veh FIZ1 (11724087_x_at) / RFU OASL (11726364_x_at) / Fold change /veh OASL (11726364_x_at) / RFU SOX15 (11748057_x_at) / Fold change /veh SOX15 (11748057_x_at) / RFU CD79A (11719716_a_at) / Fold change /veh CD79A (11719716_a_at) / RFU HIST1H1D (11736915_at) / Fold change /veh HIST1H1D (11736915_at) / RFU CASKIN2 (11723855_a_at) / Fold change /veh CASKIN2 (11723855_a_at) / RFU LOC730098 (11760151_x_at) / Fold change /veh LOC730098 (11760151_x_at) / RFU OR4N2 (11742367_at) / Fold change /veh OR4N2 (11742367_at) / RFU PRRT2 (11749266_a_at) / Fold change /veh PRRT2 (11749266_a_at) / RFU SNX32 (11753110_a_at) / Fold change /veh SNX32 (11753110_a_at) / RFU CDHR5 (11726645_a_at) / Fold change /veh CDHR5 (11726645_a_at) / RFU RCAN1 (11760418_a_at) / Fold change /veh RCAN1 (11760418_a_at) / RFU FAM167A (11723789_a_at) / Fold change /veh FAM167A (11723789_a_at) / RFU FAM26E (11764081_at) / Fold change /veh FAM26E (11764081_at) / RFU ISYNA1 (11749810_s_at) / Fold change /veh ISYNA1 (11749810_s_at) / RFU ACY1 (11761880_at) / Fold change /veh ACY1 (11761880_at) / RFU 11764098_at / Fold change /veh 11764098_at / RFU SAMD14 (11745864_x_at) / Fold change /veh SAMD14 (11745864_x_at) / RFU NPB (11741838_a_at) / Fold change /veh NPB (11741838_a_at) / RFU TMPRSS6 (11731388_a_at) / Fold change /veh TMPRSS6 (11731388_a_at) / RFU KRTAP10-2 (11738614_at) / Fold change /veh KRTAP10-2 (11738614_at) / RFU ARHGAP8 /// PRR5-ARHGAP8 (11727945_x_at) / Fold change /veh ARHGAP8 /// PRR5-ARHGAP8 (11727945_x_at) / RFU KRTAP5-7 /// NADSYN1 (11734609_at) / Fold change /veh KRTAP5-7 /// NADSYN1 (11734609_at) / RFU RASL12 (11751679_a_at) / Fold change /veh RASL12 (11751679_a_at) / RFU CDKN2B (11736163_a_at) / Fold change /veh CDKN2B (11736163_a_at) / RFU PRF1 (11729649_at) / Fold change /veh PRF1 (11729649_at) / RFU, ZNF638 /// ZNF638-IT1 / Fold change vs veh, ZNF638 /// ZNF638-IT1 / RFU, PANK3 / Fold change vs veh, PANK3 / RFU, SH3YL1 / Fold change vs veh, SH3YL1 / RFU, ZEB2 / Fold change vs veh, ZEB2 / RFU, NRIP1 / Fold change vs veh, NRIP1 / RFU, PTTG1IP / Fold change vs veh, PTTG1IP / RFU, CAPN2 / Fold change vs veh, CAPN2 / RFU, MED14 / Fold change vs veh, MED14 / RFU, SNORA58 / Fold change vs veh, SNORA58 / RFU, C1orf63 / Fold change vs veh, C1orf63 / RFU, LRRFIP1 / Fold change vs veh, LRRFIP1 / RFU, NDUFAF7 / Fold change vs veh, NDUFAF7 / RFU, SLC12A2 / Fold change vs veh, SLC12A2 / RFU, IBTK / Fold change vs veh, IBTK / RFU, ESF1 / Fold change vs veh, ESF1 / Fold change vs veh, TMEM50B / RFU, TAOK1 / Fold change vs veh, TAOK1 / RFU, ACBD3 / Fold change vs veh, ACBD3 / RFU, TMA16 / Fold change vs veh, TMA16 / RFU, RWDD3 / Fold change vs veh, RWDD3 / RFU, BCAT1 / Fold change vs veh, BCAT1 / RFU, EDEM3 / Fold change vs veh, EDEM3 / RFU, TMEM33 / Fold change vs veh, TMEM33 / RFU, WDR75 / Fold change vs veh, WDR75 / RFU, AHCTF1 / Fold change vs veh, AHCTF1 / RFU, TFRC / Fold change vs veh, TFRC / RFU, ZDHHC17 / Fold change vs veh, ZDHHC17 / RFU, NOM1 / Fold change vs veh, NOM1 / RFU, ARL8B / Fold change vs veh, ARL8B / RFU, ZBTB11 / Fold change vs veh, ZBTB11 / RFU, TAMM41 / Fold change vs veh, TAMM41 / RFU, KIAA1704 /// LOC100996395 / Fold change vs veh, KIAA1704 /// LOC100996395 / RFU, ING1 / Fold change vs veh, ING1 / RFU, TRMT61B / Fold change vs veh, TRMT61B / RFU, FUBP3 / Fold change vs veh, FUBP3 / RFU, TP53 / Fold change vs veh, TP53 / RFU, TNKS2 / Fold change vs veh, TNKS2 / RFU, ZFP14 / Fold change vs veh, ZFP14 / RFU, ACTR2 / Fold change vs veh, ACTR2 / RFU, PPP3R1 / Fold change vs veh, PPP3R1 / RFU, PIK3R1 / Fold change vs veh, PIK3R1 / RFU, HNRNPA1 / Fold change vs veh, HNRNPA1 / RFU, RNF170 / Fold change vs veh, RNF170 / RFU, ZNF28 / Fold change vs veh, ZNF28 / RFU, RNGTT / Fold change vs veh, RNGTT / RFU, OGT / Fold change vs veh, OGT / RFU, BRD1 / Fold change vs veh, BRD1 / RFU, MARS / Fold change vs veh, MARS / RFU, ZNF655 / Fold change vs veh, ZNF655 / RFU, FAHD1 / Fold change vs veh, FAHD1 / RFU, BDP1 / Fold change vs veh, BDP1 / RFU, LRRCC1 / Fold change vs veh, LRRCC1 / RFU, ARID1A / Fold change vs veh, ARID1A / RFU, ZNF146 / Fold change vs veh, ZNF146 / RFU, ZNF330 / Fold change vs veh, ZNF330 / RFU, GPN3 / Fold change vs veh, GPN3 / RFU, C9orf123 / Fold change vs veh, C9orf123 / RFU, N4BP2L2 / Fold change vs veh, N4BP2L2 / RFU, ARFIP1 / Fold change vs veh, ARFIP1 / RFU, FAM179B / Fold change vs veh, FAM179B / RFU, BCL10 / Fold change vs veh, BCL10 / RFU, UHRF1BP1L / Fold change vs veh, UHRF1BP1L / RFU, BET1 / Fold change vs veh, BET1 / RFU, CNOT2 / Fold change vs veh, CNOT2 / RFU, ZNF268 / Fold change vs veh, ZNF268 / Fold change vs veh, ZNF507 / RFU, DGCR2 / Fold change vs veh, DGCR2 / RFU, WDSUB1 / Fold change vs veh, WDSUB1 / Fold change vs veh, HSP90B1 /// MIR3652 / RFU, ADSS / Fold change vs veh, ADSS / RFU, GK / Fold change vs veh, GK / RFU, ZNF148 / Fold change vs veh, ZNF148 / RFU, TAF9 / Fold change vs veh, TAF9 / RFU, SLC1A5 / Fold change vs veh, SLC1A5 / RFU, SLMO2 / Fold change vs veh, SLMO2 / RFU, ABCC4 / Fold change vs veh, ABCC4 / RFU, LOC101060439 /// RAP1B / Fold change vs veh, LOC101060439 /// RAP1B / RFU, RFX7 / Fold change vs veh, RFX7 / RFU, GTPBP10 / Fold change vs veh, GTPBP10 / RFU, CNEP1R1 / Fold change vs veh, CNEP1R1 / RFU, BIVM-ERCC5 /// ERCC5 / Fold change vs veh, BIVM-ERCC5 /// ERCC5 / RFU, ILF3 / Fold change vs veh, ILF3 / RFU 11762660_at / Fold change /veh 11762660_at / RFU VCAN (11757783_s_at) / Fold change /veh VCAN (11757783_s_at) / RFU DDX43 (11728927_at) / Fold change /veh DDX43 (11728927_at) / RFU KRT8 (11758188_x_at) / Fold change /veh KRT8 (11758188_x_at) / RFU NKD1 (11759106_at) / Fold change /veh NKD1 (11759106_at) / RFU SRD5A1 (11742802_a_at) / Fold change /veh SRD5A1 (11742802_a_at) / RFU TPSAB1 /// TPSB2 (11721975_s_at) / Fold change /veh TPSAB1 /// TPSB2 (11721975_s_at) / RFU GSTM3 (11746129_a_at) / Fold change /veh GSTM3 (11746129_a_at) / RFU IL23R (11737362_x_at) / Fold change /veh IL23R (11737362_x_at) / RFU TMEM51 (11727254_a_at) / Fold change /veh TMEM51 (11727254_a_at) / RFU PIWIL2 (11732686_x_at) / Fold change /veh PIWIL2 (11732686_x_at) / RFU ORM1 (11744905_x_at) / Fold change /veh ORM1 (11744905_x_at) / RFU CCDC152 (11743942_at) / Fold change /veh CCDC152 (11743942_at) / RFU ECM1 (11717891_a_at) / Fold change /veh ECM1 (11717891_a_at) / RFU IL23R (11748794_a_at) / Fold change /veh IL23R (11748794_a_at) / RFU TNFAIP8L3 (11732012_x_at) / Fold change /veh TNFAIP8L3 (11732012_x_at) / RFU MBOAT4 (11741988_at) / Fold change /veh MBOAT4 (11741988_at) / RFU 11764193_at / Fold change /veh 11764193_at / RFU TMEM53 (11763286_at) / Fold change /veh TMEM53 (11763286_at) / RFU MAGEB2 (11727129_at) / Fold change /veh MAGEB2 (11727129_at) / RFU TMEM200A (11744735_a_at) / Fold change /veh TMEM200A (11744735_a_at) / RFU CCDC152 (11751479_a_at) / Fold change /veh CCDC152 (11751479_a_at) / RFU FAM211A (11726209_a_at) / Fold change /veh FAM211A (11726209_a_at) / RFU RGS16 (11746705_a_at) / Fold change /veh RGS16 (11746705_a_at) / RFU VCAN (11755009_s_at) / Fold change /veh VCAN (11755009_s_at) / RFU RHOB (11743442_s_at) / Fold change /veh RHOB (11743442_s_at) / RFU RGS16 (11720943_a_at) / Fold change /veh RGS16 (11720943_a_at) / RFU RGS16 (11720944_at) / Fold change /veh RGS16 (11720944_at) / RFU, VPS4B / Fold change vs veh, VPS4B / RFU, CREB1 / Fold change vs veh, CREB1 / RFU, DNAJC13 / Fold change vs veh, DNAJC13 / RFU, GNAQ / Fold change vs veh, GNAQ / RFU, CDK5R1 / Fold change vs veh, CDK5R1 / RFU, ZRANB3 / Fold change vs veh, ZRANB3 / RFU, CUL4A / Fold change vs veh, CUL4A / RFU, CCNY / Fold change vs veh, CCNY / RFU, UFL1 / Fold change vs veh, UFL1 / RFU, COG3 / Fold change vs veh, COG3 / RFU, DIAPH2 / Fold change vs veh, DIAPH2 / RFU, SKA2 / Fold change vs veh, SKA2 / RFU, AFF3 / Fold change vs veh, AFF3 / RFU, LMF1 / Fold change vs veh, LMF1 / RFU, IPO11 / Fold change vs veh, IPO11 / RFU, DFFB / Fold change vs veh, DFFB / RFU, FOXP1 / Fold change vs veh, FOXP1 / RFU, CARD8 / Fold change vs veh, CARD8 / RFU, STRN3 / Fold change vs veh, STRN3 / RFU, ADK / Fold change vs veh, ADK / RFU, RASSF2 / Fold change vs veh, RASSF2 / RFU, WIPF1 / Fold change vs veh, WIPF1 / RFU, LARP1B / Fold change vs veh, LARP1B / RFU, RASA1 / Fold change vs veh, RASA1 / RFU, RB1 / Fold change vs veh, RB1 / RFU, PPFIA1 / Fold change vs veh, PPFIA1 / RFU, MAT2A / Fold change vs veh, MAT2A / RFU, CCT5 / Fold change vs veh, CCT5 / RFU, WDR92 / Fold change vs veh, WDR92 / RFU, CUX1 / Fold change vs veh, CUX1 / RFU, TTC7A / Fold change vs veh, TTC7A / RFU, TMEM135 / Fold change vs veh, TMEM135 / RFU, DEPTOR / Fold change vs veh, DEPTOR / RFU, CPM / Fold change vs veh, CPM / RFU, DNAJB6 / Fold change vs veh, DNAJB6 / RFU, CACNA2D3 / Fold change vs veh, CACNA2D3 / RFU, DTX4 / Fold change vs veh, DTX4 / RFU, TFCP2 / Fold change vs veh, TFCP2 / RFU, GMCL1 /// GMCL1P1 / Fold change vs veh, GMCL1 /// GMCL1P1 / RFU, AEBP2 / Fold change vs veh, AEBP2 / RFU, SNHG1 /// SNORD22 /// SNORD25 /// SNORD26 /// SNORD27 /// SNORD28 /// SNORD29 /// SNORD31 / Fold change vs veh, SNHG1 /// SNORD22 /// SNORD25 /// SNORD26 /// SNORD27 /// SNORD28 /// SNORD29 /// SNORD31 / Fold change (Aza/veh), C12orf56 (ProbeSet 11735607_a_at) / Fold change (ACY-1035/veh), C12orf56 (ProbeSet 11735607_a_at) / Fold change (Aza/veh), FGFR1OP (ProbeSet 11751329_s_at) / Fold change (ACY-1035/veh), FGFR1OP (ProbeSet 11751329_s_at) / Fold change (Aza/veh), VPS36 (ProbeSet 11739960_a_at) / Fold change (ACY-1035/veh), VPS36 (ProbeSet 11739960_a_at) / RFU SYPL1 (11715823_x_at) / Fold change /veh SYPL1 (11715823_x_at) / RFU IGFBP7 (11715501_s_at) / Fold change /veh IGFBP7 (11715501_s_at) / RFU REEP3 (11722064_at) / Fold change /veh REEP3 (11722064_at) / RFU IGLL1 (11728026_x_at) / Fold change /veh IGLL1 (11728026_x_at): dose or concentration left out as unconfirmed
Settings: ProbeSet 11732277_a_at; LIST D

Nc1ccc(-c2cccs2)cc1NC(=O)c1ccc2c(c1)cc(C1CC1)n2CCN1CCOCC1 [ACY-1035]
Fold change vs veh, FOXP1: 0.94
